Laboratory results taken from patent US20260109695A1, “PEROXIREDOXIN 3 INHIBITORS AND METHODS OF USE FOR TREATING CANCER” (WAKE FOREST UNIVERSITY HEALTH SCIENCES, priority 2022, published 2026).
In brackets after ≈: the same amount, converted by molar mass.

How the values were obtained:
[1] = test system: human SK-OV-3 ovarian cancer cells; assay: Cellular Activity Assay (cytotoxicity, crystal violet); type: cell-based; settings: SK-OV-3 cells, 48 hr treatment
From the text: (§1) To test the activity of compounds, two complimentary assays were used as described below. The Biochemical PRX3 Inhibition Assay tests the ability of each compound to crosslink PRX3 in a simple, in vitro system. In the Cellular Activity Assay, we are testing the ability of compounds to kill SK-OV-3 ovarian cancer cells.
The Cellular Activity Assay measures the EC50 of each compound in human SK-OV-3 ovarian cancer cells TS to be taken into the cell, transported to the mitochondria, and crosslink PRX3.
The cytotoxicity of compounds was measured as described in Nelson et al. (2021) Antioxidants (Basel) 10, 150; Cunniff et al. (2015) PloS one 10, e0127310; and Newick et al. (2012) PloS one 7, e39404. SK-OV-3 is an adherent, epithelial, adenocarcenoma cell line obtained from ATCC (ref #: HTB-77). SK-OV-3 cells are resistant to the commonly used chemotherapeutics, cis-platinum and doxorubicin. For this PRX3 crosslinking assay, SK-OV-3 cells were plated in a 96-well plate. After 24 h recovery, the cells were treated for 48 hr with multiple concentrations of each compound ranging from 0.1-100 μM.
Cells were washed with PBS to remove dead cells and the remaining live cells were fixed with 3.0% formaldehyde and stained with 0.1% crystal violet. The amount of crystal violet was determined by reading the absorbance at 540 nm (crystal violet dye dissolved in 100% methanol) using a plate reader. The signal for crystal violet dye is proportional to the biomass of remaining live cells. GraphPad Prism9 software was used to calculate the effective inhibitory concentration (EC50) of test compounds. Results for each compound, are normalized to the amount of cells in control wells treated with the equivalent concentration of DMSO (negative control). TS or Compound B were included in each set of assays as a positive control.

[2] = test system: Enterococcus hirae (ATCC #10541); assay: Antimicrobial Activity Assay; type: cell-based; settings: Enterococcus hirae, minimal inhibitory concentration; for MIC: ATCC10541, read-out: Antimicrobial Activity
Experimental: The overnight growth was then diluted into growth media to make a single solution of E. hirae with a final optical density at 600 nm=0.02 AU. A 20 mM stock solution of Thiostrepton in DMSO was made and used to make multiple dilutions of TS in DMSO. Each TS dilution (0.1 mL) was then added to a test tube containing 10 mL of the diluted E. hirae and grown at 37° C. overnight while shaking at 180 rpm. The next morning, each tube was visually inspected to determine if the cells grew. Final concentrations tested were 0.120, 0.090, 0.075, 0.060, 0.045, 0.030, and 0.015 μM TS. […] Three replicates were made on three separate days (n=9). […] For TS analogs, the dilute E. hirae was treated with 20 µM final concentration of each analog (three replicates each). […] DMSO was used as a positive control (complete cell growth) and 20 µM thiostrepton was used as a negative control.

Solubility Assay = type: physicochemical; settings: 100 mM NaCl buffer, aqueous with cosolvent or surfactant or cyclodextrin, kinetic from dmso stock, 20 mM HEPES, pH 7.5, 18-24 hours at ambient temperature, read-out: Solubility
Experimental: A 20 mM stock solution was made for each compound in DMSO. To measure solubility, 0.03-0.05 mL of the stock was added to 0.27 mL 20 mM HEPES, 100 mM NaCl, pH 7.5. The solution was mixed and rotated 18-24 hours at ambient temperature. The next day, solutions were centrifuged for 10 min at 20,000×g at 24° C. to remove insoluble, solid material. Next, 100 μL of the supernatant containing the soluble compound was added to 900 μL DMSO and High Performance Liquid Chromatography was performed as described in Table 1 and either HPLC gradient 1 (Table 2) for HPLC gradient 2 (Table 3). For each analog, a 200 μM standard and a 20 μM standard were prepared and run in parallel (standards were dissolved completely in 100% DMSO). The amount of compound in the experimental sample was calculated by comparing the area under the curve for compound peak to the area for the closest standard and correcting for dilution.

purified human PRX3 = target: T1, purified human PRX3 (Homo sapiens, UniProt P30048); assay: Biochemical PRX3 Inhibition Assay (crosslink by SDS-PAGE, mono-adduct by MALDI-TOF MS); settings: 1-2 hr at 37° C.
T1 construct: made in house
T1 sequence (P30048 62-256): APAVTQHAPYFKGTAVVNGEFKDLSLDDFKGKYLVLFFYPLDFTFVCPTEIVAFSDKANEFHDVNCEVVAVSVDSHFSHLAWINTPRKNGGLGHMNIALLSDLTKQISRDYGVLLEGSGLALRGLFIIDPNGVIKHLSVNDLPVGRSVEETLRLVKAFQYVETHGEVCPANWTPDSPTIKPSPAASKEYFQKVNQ
Experimental: as §1
This assay tests the ability of each compound to form a covalent adduct with PRX3. The assay is performed as described in Nelson et al. (2021) Antioxidants (Basel) 10, 150; and Cunniff et al. (2015) PloS one 10, e0127310, and follows the appearance of non-reducible PRX3 crosslinks by SDS PAGE gel electrophoresis and follows the appearance of single PRX3 adducts by mass spectrometry. For this assay, purified human PRX3, hydrogen peroxide (the PRX3 substrate) and all the components required to enable PRX3 to catalytically cycle (thioredoxin-thioredoxin reductase-NAPDH system) are included (details below).
The biochemical PRX3 Inhibition assay contains 100 µM PRX3, 50 µM human TRX2, […] mouse thioredoxin reductase, and a NADPH regenerating system composed of 3.2 mM glucose 6-phosphate, 3.2 U/ml glucose 6-phosphate dehydrogenase and 0.4 mM NADPH. Samples are incubated for 1-2 hr at 37° C. with either 0.2 mM TS (positive control), compounds or an equivalent volume of DMSO (negative control). During this incubation, hydrogen peroxide is added to induce turnover of PRX3. Reactions are stopped by the addition of a buffer containing 100 mM dithiolthreitol (to break disulfide bonds) and SDS (detergent to denature proteins). NADPH, Glucose 6-Phosphate, and glucose 6-phosphate dehydrogenase were purchased from Sigma Aldrich. PRX3, thioredoxin, and thioredoxin reductase were all purified to >98% purity in the Lowther laboratory according to protocols referenced in Nelson et al. (2021) Antioxidants (Basel) 10, 150; and Cunniff et al. (2015) PloS one 10, e0127310.
To measure the amount of PRX3 crosslink, proteins in the reaction were separated by SDS-polyacrlyamide gel electrophoresis and stained for total protein using GelCode Blue (Life Technologies). The amount of unmodified PRX3 and TS-PRX3 crosslink was measured by densiometric analysis of the signal for the PRX3 band running at the MW of a PRX3 crosslink (−46 kDa) compared to the PRX3 signal at the MW of the un-modified PRX3 (˜23 kD).
To measure covalent adduct formation on a single PRX3 monomer, each reaction was exchanged into a mass spectrometry compatible buffer containing 40 mM ammonium citrate, pH 8.3 made in HPLC water. Sample was mixed 1:1 with a matrix solution containing 30 mg/mL sinapinic acid in 70% (vol/vol) acetonitrile, 0.2% formic acid and spotted to onto the sample plate. PRX3 mass was measured by MALDI-TOF MS analysis on a Bruker Daltonics MALDI-TOF MS spectrometer. Spectra were analyzed in FLEXAnalysis Software. The intensity of the reduced PRX3 peak (SH) and intensity of the analog adduct peak was determined and corrected for background signal at the adduct peak in the DMSO control. The fraction of single analog adduct in the monomer peak was determined by dividing the intensity of the adduct peak by the summed intensity of the SH and adduct peaks.

Structure (SMILES) | EC50 [1] [µM] | MIC [2] [µM] | solubility (Solubility Assay) [µM] | PRX3 Inhibition (Crosslink + Mono-adduct) (purified human PRX3) | Antimicrobial Activity [2]
C=C(NC(=O)c1csc(N2CCC(NC(=O)OC(C)(C)C)CC2)n1)C(=O)NC(=C)C(=O)OCCOC [Compound 3, 2-Methoxyethyl 2-(2-(2-(4-((tert-butoxycarbonyl)amino)piperidin-1-yl)thiazole-4-carboxamido)acrylamido)acrylate] | 10 to 25 | > 20 | 100 to 1000 (≈ 52.4 to 524 µg/mL) | +++ (>90%) | 
C=C(NC(=O)c1csc(N2CCC(NC(=O)OC(C)(C)C)CC2)n1)C(=O)NC(=C)C(=O)N(C)CCOC [Compound 7, Tert-butyl (1-(4-((3-((3-((2-methoxyethyl)(methyl)amino)-3-oxoprop-1-en-2-yl)amino)-3-oxoprop-1-en-2-yl)carbamoyl)thiazol-2-yl)piperidin-4-yl)carbamate] | 25 to 100 | > 20 | 100 to 1000 (≈ 53.7 to 537 µg/mL) | +++ (>90%) | 
C=C(NC(=O)c1csc(N2CCC(NC(=O)OC(C)(C)C)CC2)n1)C(=O)NC(=C)C(=O)OCc1ccccc1 [Compound 2, Benzyl 2-(2-(2-(4-((tert-butoxycarbonyl)amino)piperidin-1-yl)thiazole-4-carboxamido)acrylamido)acrylate] | 1 to 10 | > 20 | < 100 | ++ (50-90%) | 
C=C(NC(=O)c1csc(N2CCC(NC(=O)OC(C)(C)C)CC2)n1)C(=O)NC(=C)C(=O)OC1CCOCC1 [Compound 5, Tetrahydro-2H-pyran-4-yl 2-(2-(2-(4-((tert-butoxycarbonyl)amino)piperidin-1-yl)thiazole-4-carboxamido)acrylamido)acrylate] | 1 to 10 | > 20 | < 100 | +++ (>90%) | 
C=C(NC(=O)c1csc(-c2ccc(NC(=O)CCCCCBr)cc2)n1)C(=O)NC(=C)C(=O)OC [Compound B, Methyl 2-(2-(2-(4-(6-bromohexanamido)phenyl)thiazole-4-carboxamido)acrylamido)acrylate, reference compound] |  |  | < 100 |  | 
C=C(NC(=O)c1csc(N2CCC(NC(=O)OC(C)(C)C)CC2)n1)C(=O)NC(=C)C(=O)OC [Compound A, Methyl 2-(2-(2-(4-((tert-butoxycarbonyl)amino)piperidin-1-yl)thiazole-4-carboxamido)acrylamido)acrylate, reference compound] |  |  | < 100 |  | − (>20 μM)
C=C(NC(=O)c1csc(N2CCC(NC(=O)OC(C)(C)C)CC2)n1)C(=O)NC(=C)C(=O)N1CCCCC1 [Compound 1, Tert-butyl (1-(4-((3-oxo-3-((3-oxo-3-(piperidin-1-yl)prop-1-en-2-yl)amino)prop-1-en-2-yl)carbamoyl)thiazol-2-yl)piperidin-4-yl)carbamate] | 10 to 25 | > 20 | < 100 | +++ (>90%) | 
C=C(NC(=O)c1csc(N2CCC(NC(=O)OC(C)(C)C)CC2)n1)C(=O)NC(=C)c1nnc(C2CCOCC2)o1 [Compound 8, Tert-butyl (1-(4-((3-oxo-3-((1-(5-(tetrahydro-2H-pyran-4-yl)-1,3,4-oxadiazol-2-yl)vinyl)amino)prop-1-en-2-yl)carbamoyl)thiazol-2-yl)piperidin-4-yl)carbamate] | 10 to 25 | > 20 | < 100 | +++ (>90%) | 
C=C(NC(=O)C(=C)NC(=O)c1csc(N2CCC(NC(=O)OC(C)(C)C)CC2)n1)C(=O)NCCOC [Compound 4, Tert-butyl (1-(4-((3-((3-((2-methoxyethyl)amino)-3-oxoprop-1-en-2-yl)amino)-3-oxoprop-1-en-2-yl)carbamoyl)thiazol-2-yl)piperidin-4-yl)carbamate] | 10 to 25 | > 20 | 100 to 1000 (≈ 52.3 to 523 µg/mL) | +++ (>90%) | 
C=C(NC(=O)c1csc(N2CCC(NC(=O)OC(C)(C)C)CC2)n1)C(=O)NC(=C)C(=O)OCC1CCOCC1 [Compound 6, (Tetrahydro-2H-pyran-4-yl)methyl 2-(2-(2-(4-((tert-butoxycarbonyl)amino)piperidin-1-yl)thiazole-4-carboxamido)acrylamido)acrylate] | 1 to 10 | > 20 | < 100 | +++ (>90%) | 
